Laboratory results published in ChEMBL document CHEMBL1201862, “PubChem BioAssay data set” (2004).
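48-hour exposure; five concentrations; linearly interpolated endpoints. Here, GI50 denotes the concentration required for 50% inhibition of growth.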 Active and inactive are the calls of the source. Cut-off read from the data, not from the text of the source: active = GI50 up to about 1.1 µM and inactive = higher.

Legend:
Assay in all cases: NCI-60 cell line screen, 48 h
786-0 = test system: 786-0
A498 = test system: A498
A549 = test system: A549
ACHN = test system: ACHN
BT-549 = test system: BT-549
CAKI-1 = test system: CAKI-1
CCRF-CEM = test system: CCRF-CEM
COLO 205 = test system: COLO 205
DU-145 = test system: DU-145
EKVX = test system: EKVX
HCC 2998 = test system: HCC 2998
HCT-116 = test system: HCT-116
HCT-15 = test system: HCT-15
HL-60 = test system: HL-60
HOP-62 = test system: HOP-62
HOP-92 = test system: HOP-92
HT-29 = test system: HT-29
Hs-578T = test system: Hs-578T
K562 = test system: K562
KM12 = test system: KM12
LOX IMVI = test system: LOX IMVI
M14 = test system: M14
MCF7 = test system: MCF7
MDA-MB-231 = test system: MDA-MB-231
MDA-MB-435 = test system: MDA-MB-435
MDA-N = test system: MDA-N
MOLT-4 = test system: MOLT-4
Malme-3M = test system: Malme-3M
NCI-H226 = test system: NCI-H226
NCI-H23 = test system: NCI-H23
NCI-H460 = test system: NCI-H460
NCI-H522 = test system: NCI-H522
NCI/ADR-RES = test system: NCI/ADR-RES
OVCAR-3 = test system: OVCAR-3
OVCAR-4 = test system: OVCAR-4
OVCAR-5 = test system: OVCAR-5
OVCAR-8 = test system: OVCAR-8
PC-3 = test system: PC-3
RPMI-8226 = test system: RPMI-8226
RXF 393 = test system: RXF 393
SF-268 = test system: SF-268
SF-295 = test system: SF-295
SF-539 = test system: SF-539
SK-MEL-28 = test system: SK-MEL-28
SK-MEL-2 = test system: SK-MEL-2
SK-MEL-5 = test system: SK-MEL-5
SK-OV-3 = test system: SK-OV-3
SN12C = test system: SN12C
SNB-19 = test system: SNB-19
SNB-75 = test system: SNB-75
SR = test system: SR
SW-620 = test system: SW-620
T47D = test system: T47D
TK-10 = test system: TK-10
U-251 = test system: U-251
UACC-257 = test system: UACC-257
UACC-62 = test system: UACC-62
UO-31 = test system: UO-31

`O=C(c1ccc(Cl)c(Cl)c1)N(C(=O)N1CCN(c2ccccc2)CC1)S(=O)(=O)c1ccccc1` was tested, and the GI50 (786-0) was 35.6 µM (inactive), the GI50 (A498) was > 100 µM (inactive) and the GI50 (A549) was > 100 µM (inactive). The GI50 (ACHN) was 97.1 µM (inactive), the GI50 (BT-549) was 40.6 µM (inactive) and the GI50 (CAKI-1) was 55.6 µM (inactive). The GI50 (CCRF-CEM) was 19 µM (inactive), the GI50 (COLO 205) was > 100 µM (inactive) and the GI50 (DU-145) was > 100 µM (inactive). The GI50 (EKVX) was > 100 µM (inactive), the GI50 (HCC 2998) was > 100 µM (inactive) and the GI50 (HCT-116) was 29.8 µM (inactive). The GI50 (HCT-15) was 24.5 µM, the GI50 (HL-60) was > 100 µM (inactive) and the GI50 (HOP-62) was 31.6 µM (inactive). For the same molecule, the GI50 (HOP-92) was 20.9 µM (inactive), the GI50 (HT-29) was 46.7 µM (inactive) and the GI50 (Hs-578T) was 57 µM (inactive). For the same molecule, the GI50 (K562) was 22.9 µM (inactive), the GI50 (KM12) was > 100 µM (inactive) and the GI50 (LOX IMVI) was 19.9 µM (inactive). The GI50 (M14) was 37.2 µM (inactive), the GI50 (MCF7) was 36.1 µM (inactive) and the GI50 (MDA-MB-231) was 35.6 µM (inactive). The GI50 (MDA-MB-435) was 46.7 µM (inactive), the GI50 (MDA-N) was 26.2 µM (inactive) and the GI50 (MOLT-4) was 12.9 µM (inactive). For the same molecule, the GI50 (Malme-3M) was 60 µM (inactive), the GI50 (NCI-H226) was 24.2 µM (inactive) and the GI50 (NCI-H23) was 37.5 µM (inactive). For the same molecule, the GI50 (NCI-H460) was 68.7 µM (inactive), the GI50 (NCI-H522) was 19 µM (inactive) and the GI50 (NCI/ADR-RES) was 34 µM (inactive). For the same molecule, the GI50 (OVCAR-3) was 29.6 µM (inactive), the GI50 (OVCAR-4) was 24.2 µM (inactive) and the GI50 (OVCAR-5) was 26.9 µM (inactive). The GI50 (OVCAR-8) was 26.9 µM (inactive), the GI50 (PC-3) was 32 µM (inactive) and the GI50 (RPMI-8226) was 32.6 µM (inactive). For the same molecule, the GI50 (RXF 393) was > 100 µM (inactive), the GI50 (SF-268) was 38.2 µM (inactive) and the GI50 (SF-295) was 49.4 µM (inactive). The GI50 (SF-539) was 41.2 µM (inactive), the GI50 (SK-MEL-28) was > 100 µM (inactive) and the GI50 (SK-MEL-2) was 23.2 µM (inactive). For the same molecule, the GI50 (SK-MEL-5) was 28.2 µM (inactive), the GI50 (SK-OV-3) was 27 µM (inactive) and the GI50 (SN12C) was 36.1 µM (inactive). The GI50 (SNB-19) was 36.6 µM (inactive), the GI50 (SNB-75) was 91.4 µM (inactive) and the GI50 (SR) was 20.7 µM (inactive). For the same molecule, the GI50 (SW-620) was 36.1 µM (inactive), the GI50 (T47D) was > 100 µM (inactive) and the GI50 (TK-10) was > 100 µM (inactive). The GI50 (U-251) was 25.5 µM (inactive), the GI50 (UACC-257) was > 100 µM (inactive) and the GI50 (UACC-62) was 32.8 µM (inactive). The GI50 (UO-31) was 25.1 µM (inactive).
